Source: US20130157959A1, “USE OF HADES AS TUMOR SUPPRESSOR TARGET” (KONKUK UNIVERSITY INDUSTRIAL COOPERATION CORP, priority 2010, published 2013)
Peptide text beside a SMILES is read from it. * marks the point of attachment. Cbz = O=C(OCc1ccccc1)*

Experiments:
Type in all cases: cell-based
p53 [1] = assay: p53 accumulation in CPT-treated MCF7 cells (immunoblotting)
Description: In a prior research, as p53 is rapidly translocated to mitochondria upon camptothecin (CPT) treatment for its exonuclear function [Mihara et al., Molecular Cell 11, 577-590 (2003)]. We examined whether Hades would be able to weaken the exonuclear function of p53 upon CPT treatment. MCF7 cells were transfected with plasmids (1 μg) expressing GFP or GFP-Hades. At 24 h post-transfection, cells were treated with CPT (1 μM) for 6 h. Accumulation of p53 upon CPT treatment was attenuated by Hades expression (FIG. 5e, upper panel). MCF7 cells were transfected with expression plasmid for GFP or GFP-Hades RING MR. At 24 h after transfection, cells were treated with CPT [5 μM] for 6 h and their nuclear and cytoplasmic fractions were collected to measure the expression level of p53. […] Further, MCF7 cells were transfected with the expression plasmids for GFP or GFP-Hades MR. At 24 h after transfection, cells were treated with 1 μM CPT for 24 h. Cells were harvested, lysed and immunoprecipitated with anti-p53 antibody. […] Hades inhibits the interaction between p53 and Bcl-2 in CPT-treated cells. (FIG. 5f) In order to confirm the effect of Hades on CPT-induced apoptosis, MCF7 cells were transfected with plasmids expressing GFP or GFP-Hades. At 24 h post-transfection, cells were treated with CPT (1 μM) for 24 h.

Crm1 = Crm1 (Homo sapiens, UniProt O14980); assay: p53 level in Hades-transfected H1299 cells with leptomycin B; conditions: H1299 transfected with p53 and GFP-Hades, FIG. 2i
Description: Next, we monitored the localization of p53 after the knockdown of Hades. […] The levels of endogenous p53 were measured in fractionated extracts of stable MCF7 cells. […] And also, we used a p53 expression plasmid encoding a mutant p53 (C153Y) that is localized mainly to the cytoplasm but not in the nucleus [Nie et al., J Biol Chem. 282, 14616-14625 (2007)]. We performed immunoblotting assay of ectopically expressed wild-type or mutant p53(C135Y). […] At 24 h after transfection, ectopically expressed wild-type p53 and mutant p53 levels were measured by immunoblotting.

p53 [2] = assay: Bax-luc / Puma-luc luciferase reporter assay; conditions: H1299, LMB 20 nM 4 h, FIG. 4b
Description: Aliquots of 5×10^4 cells were plated in 24-well plates. The following was added to each well: 500 ng of pGL plasmid containing the promoter p53 binding site for Bax or Puma, 100 ng of p53 plasmid, and 200 ng of Hades or Hades MT plasmid. At 48 h after transfection, cells were harvested and cell extracts were prepared by addition of 50 μl Passive lysis buffer (Promega). Luciferase activities were measured using a Biotek synergy HT microplate reader. The relative luciferase activities were normalized by mesuring β-galactosidase activities using Luminescent β-galactosidase detection kit II (Takara-Clontech).
Since E3 ligase activities necessary for p53 ubiquitination can also regulate p53 function [Dornan et al., Nature 429, 86-92 (2004); Leng et al., Cell 112, 779-791 (2003)], we explored the effect of Hades on p53-dependent growth suppression and apoptosis. First, we examined whether Hades affects p53-mediated transcriptional activation using a luciferase reporter assay (FIG. 4a). H1299 cells were cotransfected with expression plasmids for p53 and GFP, GFP-Hades, or GFP-Hades MT, together with Bax-luc or Puma-luc reporter plasmid. At 24 h after transfection, the relative luciferase activities were measured by luminometer. […] At 24 h after transfection, luciperase activation and p53 experssion were measured.

p53 [3] = assay: In vivo p53 ubiquitination assay in H1299 cells; conditions: H1299 cotransfected with p53 and GFP-Hades, MG132 10 μM 4 h, FIG. 3e
Description: For in vivo p53 ubiquitination assay, HCT116 p53^−/− or H1299 cells were transfected with GFP, GFP-Hades, or GFP-Hades RING MT. At 48 hr after transfection, cells were treated with 10 μM MG132 for 4 hr. The ubiquitinated lysates were analyzed by immunoprecipitation using anti-p53 antibody followed by immunoblotting using anti-Ubiquitin antibody. In vivo p53 ubiquitination analysis, HCT116 p53^−/− or H1299 cells were transformed with GFP, GFP-Hades or GFP-Hades RING MT for 48 hr. After the transformation, cells were incubated for 4 hr using 10 μM MG132. Then, cells were lysed using SDS-containing lysis buffer and heated for […]. […] The anti-p53 immunoprecipitate was analyzed by immunoblotting using anti-polyubiquitin antibody.
Since there are several E2 conjugating enzymes which participate in the ubiquitin-mediated degradation [Smalle et al., Annu Rev Plant Biol. 2004, 555-590 (2004)], we examined which E2 enzyme is responsible for the ubiquitination of p53 by Hades. […] After in vitro ubiquitination, samples were examined SDS-PAGE and detected using autoradiography. […] Moreover, in vitro translated ^35S-labeled p53 was incubated with GST, GST-Hades RP or GST-Mdm2 in the presence of ATP, His-tagged ubiquitin E1 and E2(UbcHSc). p53 ubiquitination was assessed by immunoblotting using anti-p53 antibody. […] The p53 ubiquitination was assessed by immunoblotting using anti-p53 antibody. […]

p53 [4] = assay: p53 level in Hades-transfected H1299 cells with MG132; conditions: H1299, 10 μM MG132 4 h, FIG. 2e
Description: To gain a more detailed insight into the function of Hades in p53 downregulation, we investigated the regulation of p53 stability by Hades. H1299 cells were transfected with each indicated plasmid for 24 h and untreated or treated with 10 μM MG132 for 4 h. The reduced level of p53 by Hades was recovered by treatment of MG132 (FIG. 2e). To generate of stable Hades-knockdown MCF7 cells using the shRNA, the cells were transfected with pSuper-Hades 1 or 2. After selection for 14 days in media containing G418 (500 μg/ml), hades mRNA levels were measured by RT-PCR and the levels of endogenous Hades and p53 proteins were measured by immunoblotting. […] Furthermore, Stable Hades-knockdown MCF7 cells using Hades shRNA were incubated with cycloheximide (CHX, 150 μg/ml). The half-life of p53 protein was greater in pSuper-Hades transfected cells (lower panel) than in control (upper panel) (FIG. 2g).

HCT116 p53+/+ cells = assay: JC-1 mitochondrial membrane potential, HCT116 p53+/+; conditions: 40 nM siRNA 24 h, then 1 μM CPT 24 h, FIG. 5j
Description: For the MTS assay, cells were incubated with CellTiter 96® AQueous Non-Radioactive Cell Proliferation Assay reagent (Promega, USA) for 1 h, and then the O.D. was measured at 490 nm. Apoptosis, DNA content, and mitochondrial membrane potential were determined by flow cytometry using annexin V-PE, propidium iodine, and JC-1 staining, as previous described [Shirangi et al., FASEB J. 16, 420-422 (2002)].
The present inventors investigated the negative role of Hades on p53-dependent apoptosis additionaly using FACS analysis. MCF7 cells were transfected with pSuper or pSuper-Hades, treated with 1 μM CPT for 24 h, and analyzed by FACS to measure the sub-GO fraction. As a result, CPT treatment was higher in Hades knockdown MCF7 cells than in control cells (FIG. 5i). Further, HCT116 p53+/+ and HCT116 p53−/− cells were transfected with 40 nM Hades siRNA or control siRNA. After incubation for 24 h, cells were further treated with 1 μM CPT for 24 h. Cells were harvested and stained with JC-1 for 30 min.

Sequence of Crm1 (O14980 whole entry): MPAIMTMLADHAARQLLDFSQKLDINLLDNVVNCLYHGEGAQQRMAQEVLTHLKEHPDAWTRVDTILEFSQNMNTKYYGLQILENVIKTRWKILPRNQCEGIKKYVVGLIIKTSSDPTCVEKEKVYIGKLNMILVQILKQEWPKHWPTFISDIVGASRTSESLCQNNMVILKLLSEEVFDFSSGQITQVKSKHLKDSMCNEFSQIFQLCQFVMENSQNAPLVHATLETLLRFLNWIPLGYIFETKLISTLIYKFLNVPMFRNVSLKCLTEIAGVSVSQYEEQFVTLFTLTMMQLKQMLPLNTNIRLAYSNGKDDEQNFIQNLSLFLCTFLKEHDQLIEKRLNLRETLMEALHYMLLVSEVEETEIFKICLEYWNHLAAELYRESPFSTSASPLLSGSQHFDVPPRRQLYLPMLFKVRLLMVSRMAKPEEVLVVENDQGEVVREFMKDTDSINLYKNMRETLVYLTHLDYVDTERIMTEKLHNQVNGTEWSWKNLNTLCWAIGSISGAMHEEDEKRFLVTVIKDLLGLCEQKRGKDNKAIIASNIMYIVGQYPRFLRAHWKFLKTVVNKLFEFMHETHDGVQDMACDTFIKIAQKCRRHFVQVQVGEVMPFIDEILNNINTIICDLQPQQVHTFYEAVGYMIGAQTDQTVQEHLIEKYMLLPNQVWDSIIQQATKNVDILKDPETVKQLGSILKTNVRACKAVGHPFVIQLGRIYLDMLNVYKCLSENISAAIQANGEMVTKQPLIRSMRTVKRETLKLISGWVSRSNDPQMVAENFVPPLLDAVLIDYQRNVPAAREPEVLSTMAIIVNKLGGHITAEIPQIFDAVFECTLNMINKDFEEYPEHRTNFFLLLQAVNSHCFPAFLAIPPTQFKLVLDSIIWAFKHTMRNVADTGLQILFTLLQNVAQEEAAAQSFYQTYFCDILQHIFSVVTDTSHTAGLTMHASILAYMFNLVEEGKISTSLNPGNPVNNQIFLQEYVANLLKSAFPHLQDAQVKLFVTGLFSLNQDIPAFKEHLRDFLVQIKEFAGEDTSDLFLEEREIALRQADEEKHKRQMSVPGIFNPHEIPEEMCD

Molecule: CC[C@@]1(O)C(=O)OCc2c1cc1n(c2=O)Cc2cc3ccccc3nc2-1 [CPT, Camptothecin]
- expression level of p53 (p53 [1]; MCF7, 1 μM CPT 24 h, FIG. 5f): accumulation of p53 expression was observed
- expression level of p53 in nuclear and cytoplasmic fractions (p53 [1]; MCF7, CPT 5 μM 6 h, FIG. 5e lower panel): accumulated in nucleus and cytoplasm

Molecule: CCC(=C/[C@H](C)C/C=C/C(C)=C/[C@@H](C)C(=O)[C@@H](C)[C@H](O)[C@@H](C)C/C(C)=C/C(=O)O)/C=C/[C@@H]1OC(=O)C=C[C@@H]1C [LMB, Leptomycin B]
- level of p53 reduced by Hades (Crm1): restored the level of p53
- p53 transcriptional activity (relative luciferase activity) (p53 [2]): not reduced by Hades in the presence of LMB

Molecule: CC(C)C[C@@H](C=O)NC(=O)[C@H](CC(C)C)NC(=O)[C@H](CC(C)C)NC(=O)OCc1ccccc1 [MG132] (Cbz-Leu-Leu-Leu-aldehyde)
- polyubiquitinated p53 (p53 [3]): only detected in Hades-transfected cells treated with MG132
- level of p53 reduced by Hades (p53 [4]): recovered

Molecule: Hades siRNA: siRNAs for Hades from Ambion, GGGAUUUUUAUCUCGAGGC and CGUGUGUGUAGAGGACAAA; antisense SEQ ID NO: 4 and 5 (antisense 1 GCCUCGAGAUAAAAAUCCCTG; antisense 2 UUUGUCCUCUACACACACGTG; sense strands lack entries, further chemistry not given here)
- loss of mitochondrial membrane potential (JC-1) (HCT116 p53+/+ cells): only detectable in HCT116 p53+/+ cells
